From patent publication US4988814A, “Tertiary alkyl functionalized piperazine derivatives” (American Home Products Corp., priority 1989, dated 1991)

What was measured:
[1] = target: T1, 5-HT1A serotonin receptor (Rattus norvegicus, UniProt P19327); assay: 5-HT1A receptor binding, displacement of [^3 H] 8-OH DPAT (Hall et al.); conditions: for inhibition at 0.1 µM / inhibition at 1 µM: read-out: Affinity for 5HT1A Receptor % Inhibition; for IC50: read-out: Affinity for 5HT1A Receptor IC50
T1 construct: 44: 1685-1696, 1985; from tissue
T1 sequence (P19327 1-422): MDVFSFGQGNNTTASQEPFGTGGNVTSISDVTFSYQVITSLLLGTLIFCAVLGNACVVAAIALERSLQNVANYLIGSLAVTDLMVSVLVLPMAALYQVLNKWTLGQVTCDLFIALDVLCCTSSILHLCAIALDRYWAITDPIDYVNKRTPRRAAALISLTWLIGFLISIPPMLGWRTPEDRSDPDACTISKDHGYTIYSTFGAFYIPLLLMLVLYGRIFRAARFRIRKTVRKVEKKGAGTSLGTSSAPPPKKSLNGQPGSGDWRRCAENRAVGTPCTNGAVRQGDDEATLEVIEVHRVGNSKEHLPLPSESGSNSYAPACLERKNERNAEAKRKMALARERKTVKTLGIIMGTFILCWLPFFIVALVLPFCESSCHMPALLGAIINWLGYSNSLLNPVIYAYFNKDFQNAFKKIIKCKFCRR
Excerpt: 8-OH DPAT (dipropylaminotetralin) from the 5-HT1A serotonin receptor by the procedure of Hall et al., J. Neurochem.

D2 dopamine receptor = target: T2, D2 dopamine receptor (Rattus norvegicus, UniProt P61169); assay: D2 dopamine receptor binding, limbic brain tissue incubated with ^3 H-spiroperiodol; conditions: for inhibition at 1 µM: read-out: Affinity for D2 Receptor % Inhibition
T2 construct: from tissue; host or cells: homogenized limbic brain tissue
T2 sequence (P61169 whole entry): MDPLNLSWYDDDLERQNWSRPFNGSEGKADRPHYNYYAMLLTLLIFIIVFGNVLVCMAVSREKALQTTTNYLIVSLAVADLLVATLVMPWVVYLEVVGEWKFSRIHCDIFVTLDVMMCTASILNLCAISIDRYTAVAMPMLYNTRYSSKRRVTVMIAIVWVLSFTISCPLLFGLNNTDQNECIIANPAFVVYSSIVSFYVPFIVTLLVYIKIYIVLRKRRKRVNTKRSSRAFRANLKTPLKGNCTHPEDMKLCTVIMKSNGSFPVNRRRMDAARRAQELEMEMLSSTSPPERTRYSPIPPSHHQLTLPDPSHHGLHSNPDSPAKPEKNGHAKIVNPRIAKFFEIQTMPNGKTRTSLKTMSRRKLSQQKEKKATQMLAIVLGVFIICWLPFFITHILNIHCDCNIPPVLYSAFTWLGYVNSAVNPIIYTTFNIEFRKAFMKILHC
Method: The D2 dopamine receptor binding study was in accordance with a modification of the procedure of Field et al., Brain Res., 136, pp. 578-584 (1977) and Yamamura et al., eds., Neurotransmitter Receptor Binding, Raven Press, N.Y. (1978), wherein homogenized limbic brain tissue is incubated with ^3 H-spiroperiodol and various concentrations of test compounds, filtered and washed and shaken with Hydrofluoro scintillation cocktail (National Diagnostics) and counted in a Packard 460CD scintillation counter.

5-HT1A receptor = conditions: prior art; cited from earlier work
D2 receptor = conditions: prior art; cited from earlier work

| Compound | inhibition at 0.1 µM [1] | inhibition at 1 µM [1] | other results |
| --- | --- | --- | --- |
| COc1ccccc1N1CCN(CCCCNC(=O)NC(C)(C)C)CC1 [Example 1, N-(1,1-Dimethylethyl)-N^1-[4-[4-(2-methoxyphenyl)-1-piperazinyl]butyl]urea] | 91% |  |  |
| COc1ccccc1N1CCN(CCCCNC(=O)C(C)(C)C)CC1 [Example 2, N-[4-[4-(2-Methoxyphenyl)-1-piperazinyl]butyl]-2,2-dimethylpropanamide] | 100% |  |  |
| COc1ccccc1N1CCN(CCOC(=O)C(C)(C)C)CC1 [Example 3, 2,2-Dimethylpropanoic acid 2-[4-(2-methoxyphenyl)-1-piperazinyl]ethyl ester] |  | 86% | inhibition at 1 µM (D2 dopamine receptor): 89% |
| COc1ccccc1N1CCN(CCCOC(=O)C(C)(C)C)CC1 [Example 4, 2,2-Dimethylpropanoic acid 3-[4-(2-methoxyphenyl)-1-piperazinyl]propyl ester] |  | 98% | inhibition at 1 µM (D2 dopamine receptor): 99% |
| CC(C)(C)C(=O)OCCCN1CCN(c2ccccc2Cl)CC1 [Example 5, 2,2-Dimethylpropanoic acid 3-[4-(2-chlorophenyl)-1-piperazinyl]propyl ester] |  | 98% | inhibition at 1 µM (D2 dopamine receptor): 58% |
| COc1ccccc1N1CCN(CC(C(=O)OC(C)(C)C)c2ccccc2)CC1 (centres unmarked) [Example 12, Tertiary-butyl 3-[1-[4-(2-methoxyphenyl)piperazinyl]]-2-phenylpropanoate] | 86% | 98% | IC50 [1]: 11.8 nM |
| COc1ccccc1N1CCN(CC(C(=O)NC(C)(C)C)c2ccccc2)CC1 (centres unmarked) [Example 13, N-Tertiary-butyl 3-[4-(2-methoxyphenyl)piperazinyl]-2-phenylpropanamide] |  |  | IC50 (D2 dopamine receptor; read-out: Affinity for D2 Receptor IC50): 1740 nM |
| COc1ccccc1N1CCN(CCNC(=O)C2(C)CCCCC2)CC1 [Example 15, N-[2-[4-(2-Methoxyphenyl)-1-piperazinyl)ethyl]-1-methylcyclohexanecarboxamide] | 98% |  |  |
| COc1ccccc1N1CCN(CCNC(=O)NC2(C)CCCCC2)CC1 [Example 18, N-[2-[4-(2-Methoxyphenyl)-1-piperazinyl]ethyl]-N'-(1-methylcyclohexyl)urea] | 85% |  |  |
| CC1(C(=O)NCCN2CCN(c3ncccn3)CC2)CCCCC1 [Example 19, N-2-(4-(2-Pyrimidinyl)-1-piperazinyl)ethyl-1-methylcyclohexylcarboxamide] | 67% |  |  |
| COc1ccccc1N1CCN(C[C@@H](C)NC(=O)C2(C)CCCCC2)CC1 [Example 20, (R)-N-[2-[4-(2-Methoxyphenyl)-1-piperazinyl]-1-methylethyl]-1-methylcyclohexane carboxamide] | 100% |  |  |
| COc1ccccc1N1CCN(CC(OC(=O)C(C)(C)C)c2ccccc2)CC1 (centres unmarked) [Example 23, 2,2-Dimethylpropanoic acid 2-(4-(2-methoxyphenyl)-piperazin-1-yl)-1-phenylethyl ester] | 27% | 78% | IC50 [1]: 270 nM |
| COc1ccccc1N1CCN(CC(OC(=O)NC(C)(C)C)c2ccccc2)CC1 (centres unmarked) [Example 24] | 73% | 97% | IC50 [1]: 20 nM |
| COc1ccccc1N1CCN(CC(C(=O)NNC(C)(C)C)c2ccccc2)CC1 (centres unmarked) [Example 26, N-Tert-butyl-3-[1-[4-(2-methoxy)phenyl]piperazinyl]-2-phenyl-propionhydrazide] | 48% | 96% | IC50 [1]: 118 nM |
| O=C1CC2(CCCC2)CC(=O)N1CCCCN1CCN(c2ncccn2)CC1 [buspirone, reference compound] |  |  | 5-HT1A receptor affinity/binding (in words) [1]: potent affinity; 5-HT1A receptor affinity/activity (in words) (5-HT1A receptor): selective activity |
| CCCCN1C(=O)C2C(=O)N(CCCCN3CCN(c4ccccc4OC)CC3)C(=O)C(C1=O)C2(C)C [umespirone] |  |  | 5-HT1A receptor affinity/activity (in words) (5-HT1A receptor): high affinity; D2 receptor affinity (in words) (D2 receptor): high affinity |
